Experimental data from patent US11617814B2, “Methods of treatment comprising administering polymer particles configured for intravascular delivery of pharmaceutical agents” (TERUMO CORPORATION, priority 2016, dated 2023).

Experiments:
[1] = Solubility of SN-38 in water, observed in the elution extract; type: physicochemical; conditions: yellow precipitate formed in the extract solution
Experimental: The kinetics of SN-38 elution from the preloaded particles is illustrated in FIG. 1. The theoretical amount of SN-38 tethered on the particles is 15 mg for 100 mg of particles assuming no loss of the drug during the preparation of the particles. Upon immersion in PBS, SN-38 was eluted slowly over a period of time. On day 8, there was approximately 3% of SN-38 eluted. The elution curve obtained is fairly close to a linear line over the period of 8 days with a steady daily release between 3-5% of loaded SN-38 indicating controlled release of SN-38 is achieved with the preloaded particles. The total amount of SN-38 eluted during the first 8 days was 34% of the theoretical amount.

[2] = In vivo elution: systemic concentration of SN-38 in plasma after embolization, LC/MS/MS
Experimental: (§1) Blood samples were obtained to determine the systemic concentration of SN-38 before embolization as well as 20, 40, 60, 120 and 180 minutes post-embolization. An additional blood sample was collected at sacrifice, which was at day 6. Plasma was prepared by centrifugation and the samples were frozen at −80° C. until analysis.
Quantitation was done via liquid chromatography-tandem mass spectrometry (LC/MS/MS) using an Agilent 1260 Infinity HPLC system coupled with ABSciex 4000 Q Trap LC/MS/MS system. Chromatographic separation was performed using an Agilent Poroshell 120 C18 column (4.6 mm×50 mm, 2.7 μm) at 25° C. and mobile phases consisting of A: 0.1% formic acid in acetonitrile and B: 0.1% formic acid in water. At a flow rate of 1.0 mL/min, the chromatographic gradient was 27% buffer A from 0.0-0.3 min, 27-52% from 0.3-2.5 min, 52-80% from 2.5-2.6 min, 80% from 2.6-2.7 min, 80-27% from 2.7-2.8 min, 27% from 2.9-4.0 min. The plasma samples were precipitated with 3 fold excess (v/v) of acetonitrile containing 50 ppb of the internal standard, camptothecin. After being vortexed and centrifuged at 13,000 rpm at 4° C. for 10 minutes, 200 μL of the supernatant of each sample was diluted with 600 μL of 0.1% formic acid in water. Injection of 100 μL of the diluted sample was performed. The calibration curve was prepared by spiking blank plasma to a range from 2.5-500 ppb for SN-38. […]

[3] = In vivo elution: systemic concentration of oxaliplatin in plasma after embolization, LC/MS/MS; set-up: species or system pig
Experimental: as §1, with “oxaliplatin” for “SN-38”, “6 or day 7.” for “6.”
Quantitation was done via LC/MS/MS using an Agilent 1260 Infinity HPLC system coupled with ABSciex 4000 Q Trap LC/MS/MS system. Chromatographic separation was performed using an Agilent Poroshell 120 C18 column (4.6 mm×50 mm, 2.7 μm) at 50° C. and mobile phase consisting of A: 0.1% formic acid in acetonitrile and B: 0.1% formic acid in water. At a flow rate of 500 μL/min, the chromatographic gradient was 0% buffer A from 0.0-2.5 min, 0-90% from 2.5-2.6 min, 90% from 2.6-4.1 min, 90-0% from 4.1-4.2 min, and 0% from 4.2-10.0 min. The divert valve was open from 1.4-2.7 min and 3.4-4.6 min. The plasma samples were purified by ultracentrifugation first and then solid phase extraction. Plasma sample, 500 μL, was loaded onto a 30K Nanosep Centrifuge Device and centrifuged to collect the plasma ultra-filtrate. The centrifugation was performed at 4° C., starting at 8,000 rcf for 30 mins, 9,000 rcf for 30 mins, and 10,000 rcf for 15 mins with an increment of 1,000 rcf every 15 mins until 13,000 rcf for 2 hrs and 15 mins. The collected plasma ultra-filtrate was diluted with 1:1 (v/v) ratio of acetonitrile containing 500 ppb of the internal standard, carboplatin. The mixture, 600 μL, was loaded onto a 1 mL HybridSPE-Phospholipid cartridge, which was placed in a 15 mL conical centrifuge tube and centrifuged at 4° C. at 1,000 rcf for 5 mins and then 4,000 rcf for 5 mins. The sample collected in the centrifuge tube was then transferred to an HPLC vial for analysis. Injection of 50 μL of the sample was performed. The calibration curve was prepared by spiking the blank plasma ultra-filtrate to a range from 5-2000 ppb. The systemic concentration of oxalipatin in plasma over time is illustrated in FIG. 3.

| SMILES | solubility of SN-38 in water [1] | systemic concentration of SN-38 in plasma ([2]; each time point: pre-embolization, 20, 40, 60, 120, 180 min post-embolization and day 6, calibration 2.5-500 ppb) | time of highest systemic concentration of SN-38 ([2]; post embolization, plasma) | systemic concentration of oxaliplatin in plasma ([3]; each time point: pre-embolization, 20, 40, 60, 120, 180 min post-embolization and day 6 or 7, plasma ultra-filtrate, calibration 5-2000 ppb) | systemic concentration of oxaliplatin at day 6 ([3]; one sample pig, day 6) | time of highest systemic concentration of oxaliplatin ([3]; post embolization, one sample pig) |
| --- | --- | --- | --- | --- | --- | --- |
| CCc1c2c(nc3ccc(O)cc13)-c1cc3c(c(=O)n1C2)COC(=O)[C@]3(O)CC [SN-38, 7-ethyl-10-hydroxy-camptothecin] | poor solubility | lower than the lower limit of quantitation | 3 h | – | – | – |
| O=C1[O][Pt]2([NH][C@@H]3CCCC[C@H]3[NH]2)[O]C1=O [oxaliplatin] | – | – | – | lower than the lower limit of quantitation | close to pre-embolization | 3 h |
